# Assays:
# Assay in all cases: relative viability (nuclei count vs DMSO), 5 days (fraction); higher = more cells survive
# [1] = compound: Cn1c(=O)n(-c2ccc(C(C)(C)C#N)cc2)c2c3cc(-c4cnc5ccccc5c4)ccc3ncc21 [Dactolisib] + CS(=O)(=O)CCNCc1ccc(-c2ccc3ncnc(Nc4ccc(OCc5cccc(F)c5)c(Cl)c4)c3c2)o1 [Lapatinib] (partner 2 µM)
# How it was run: (§1)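 A single step with final 0.05% Triton X-100, 1% formaldehyde and 1 ug/ml Hoechst fixed the cells and stained nuclei 5 days after treatment. Lung cancer cell lines in 1536-well plates had been treated by pin tool the day after seeding with one drug alone or a fixed anchor-drug dose plus five library-drug doses (not always all listed) in √10 steps, and nuclei were counted on 4× images. Relative viability is the ratio of nuclei in treated wells to nuclei in vehicle wells, taken as the median of duplicate plates.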
# [2] = compound: Cn1c(=O)n(-c2ccc(C(C)(C)C#N)cc2)c2c3cc(-c4cnc5ccccc5c4)ccc3ncc21 [Dactolisib] + CC(=O)c1c(C)c2cnc(Nc3ccc(N4CCNCC4)cn3)nc2n(C2CCCC2)c1=O [Palbociclib] (partner 0.5 µM)
# How it was run: as §1
# [3] = compound: Cn1c(=O)n(-c2ccc(C(C)(C)C#N)cc2)c2c3cc(-c4cnc5ccccc5c4)ccc3ncc21 [Dactolisib] + O=C(c1cc(Cc2n[nH]c(=O)c3ccccc23)ccc1F)N1CCN(C(=O)C2CC2)CC1 [Olaparib] (partner 8 µM)
# How it was run: as §1
# [4] = compound: C1CCC(CC1)N(CCNCCC2=C3C(=C(C=C2)O)NC(=O)CO3)C(=O)CCNCCC4=CC(=C(C=C4)Cl)Cl [AZ505] + Cc1cc(Nc2cc(N3CCN(C)CC3)nc(Sc3ccc(NC(=O)C4CC4)cc3)n2)n[nH]1 [Tozasertib] (partner 0.1 µM)
# How it was run: as §1
cell line,measurement,setting,value
UMC-11,relative viability,[1]; first compound 0.002 µM,0.863
same,relative viability,[1]; first compound 0.006325 µM,0.788
same,relative viability,[1]; first compound 0.02 µM,0.78
same,relative viability,[1]; first compound 0.06325 µM,0.316
same,relative viability,[1]; first compound 0.2 µM,0.272
same,relative viability,[2]; first compound 0.002 µM,0.331
same,relative viability,[2]; first compound 0.006325 µM,0.311
same,relative viability,[2]; first compound 0.02 µM,0.344
same,relative viability,[2]; first compound 0.06325 µM,0.318
same,relative viability,[2]; first compound 0.2 µM,0.305
same,relative viability,[3]; first compound 0.002 µM,0.36
same,relative viability,[3]; first compound 0.006325 µM,0.317
same,relative viability,[3]; first compound 0.02 µM,0.306
same,relative viability,[3]; first compound 0.06325 µM,0.202
same,relative viability,[3]; first compound 0.2 µM,0.193
same,relative viability,[4]; first compound 0.08 µM,0.189
same,relative viability,[4]; first compound 0.253 µM,0.206
same,relative viability,[4]; first compound 0.8 µM,0.188
same,relative viability,[4]; first compound 2.53 µM,0.196
same,relative viability,[4]; first compound 8 µM,0.205

# Reference: the supplement of paper PMC10307832
